The record followed here is PubChem BioAssay (NCI).

Values joined by “and” are separate entries in the source; they are usually repeats but may differ in a detail not shown here. Equal entries are not always repeated.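 Cultured in 96-well plates, cells were exposed to test compound for 48 hours across five concentrations. GI50 is the concentration that inhibits growth by half. TGI marks complete inhibition of growth.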

Test systems include SK-MEL-2 melanoma; OVCAR-5 ovarian; HL-60(TB) leukemia; NCI-H226 lung; UACC-62 melanoma; IGROV1 ovarian; MOLT-4 leukemia; MCF7 breast; EKVX NSCLC; SW-620 colon.
Common to all, as to assay: NCI anticancer screen, dose series, 48 h

As to `CCC/C(=N\NC(=S)N1CCN(c2ccccn2)CC1)c1ccccn1`, the GI50 is 0.19 µM in the assay with SK-MEL-2 melanoma; 0.113 µM in the assay with OVCAR-5 ovarian; 0.136 µM with NCI-H226 lung; 0.00925 µM in the assay with MOLT-4 leukemia; 0.0308 µM in the assay with EKVX NSCLC; 0.0117 µM in the assay with SW-620 colon. Further, the TGI with SK-MEL-2 melanoma was 0.312 µM and 1.65 µM; with OVCAR-5 ovarian, more than 4.36 µM; in the assay on HL-60(TB) leukemia it was 0.0458 µM; in the assay on NCI-H226 lung it was 3.67 µM and 1.75 µM; in the assay with UACC-62 melanoma, 0.242 µM and 1.43 µM; with IGROV1 ovarian it was 2.3 µM and 3.11 µM. Further, the TGI in the assay with MOLT-4 leukemia is > 10 µM and 1.05 µM; with MCF7 breast it was 1.41 µM; in the assay with SW-620 colon, 1.36 µM and 1.21 µM.
As to `Cn1ccnc1C(=O)/C=C/c1ccc(CC(=O)Nc2ccc(Cl)cc2)cc1`, the GI50 is more than 25 µM in the assay with SK-MEL-2 melanoma; 9.97 µM with OVCAR-5 ovarian; 4.81 µM with HL-60(TB) leukemia; 7.43 µM with NCI-H226 lung; 6.5 µM in the assay with UACC-62 melanoma; 5.27 µM in the assay with IGROV1 ovarian. For the same compound, the GI50 in the assay on MOLT-4 leukemia was 1.74 µM; in the assay on MCF7 breast, 0.891 µM; in the assay with EKVX NSCLC it was 15.6 µM; in the assay with SW-620 colon it was 1.25 µM. In addition, the TGI with SK-MEL-2 melanoma, with OVCAR-5 ovarian, with HL-60(TB) leukemia, in the assay on NCI-H226 lung, in the assay on UACC-62 melanoma and in the assay on IGROV1 ovarian was more than 25 µM each time. Further, the TGI with MOLT-4 leukemia, in the assay on MCF7 breast, with EKVX NSCLC and in the assay on SW-620 colon was more than 25 µM each time.
For the compound `CN1CCN(Cc2ccc(-c3cc4ncnc(Nc5ccc(OCc6cccc(F)c6)c(Cl)c5)c4s3)o2)CC1`, the GI50 was 5.33 µM in the assay with SK-MEL-2 melanoma; 3.91 µM in the assay with OVCAR-5 ovarian; 4.62 µM with HL-60(TB) leukemia; 4.39 µM with NCI-H226 lung; 4.97 µM with UACC-62 melanoma; 3.51 µM with IGROV1 ovarian. The GI50 in the assay with MOLT-4 leukemia is 4.47 µM; in the assay on MCF7 breast, 3.86 µM; with EKVX NSCLC, 2.95 µM; in the assay on SW-620 colon, 4.66 µM. Also, the TGI in the assay with SK-MEL-2 melanoma was 10.2 µM; in the assay with OVCAR-5 ovarian, 7.8 µM; with HL-60(TB) leukemia, 9.34 µM; in the assay with NCI-H226 lung it was 10.4 µM; with UACC-62 melanoma, 9.58 µM; with IGROV1 ovarian it was 8.34 µM. Besides, the TGI in the assay on MOLT-4 leukemia was determined as 9.39 µM; in the assay on MCF7 breast, 7.81 µM; in the assay with EKVX NSCLC, 8.78 µM; in the assay with SW-620 colon it was 8.64 µM.
Consider `O=C1c2ccccc2-c2c1c1ccccc1c(=O)n2CCCNCCCn1c2c(c3ccccc3c1=O)C(=O)c1ccccc1-2`, for which the GI50 in the assay on SK-MEL-2 melanoma is 22.7 µM; in the assay with OVCAR-5 ovarian it was 3.04 µM; in the assay on HL-60(TB) leukemia, more than 50 µM; in the assay with NCI-H226 lung it was 4.42 µM; with UACC-62 melanoma, 7.52 µM; in the assay with IGROV1 ovarian, 1.63 µM. For the same compound, the GI50 with MOLT-4 leukemia is 0.398 µM; in the assay with MCF7 breast, 1.33 µM; with EKVX NSCLC, 3.98 µM; with SW-620 colon it was 0.852 µM. Further, the TGI in the assay on SK-MEL-2 melanoma was more than 50 µM; with OVCAR-5 ovarian it was 6.08 µM; in the assay on HL-60(TB) leukemia it was more than 50 µM; in the assay on NCI-H226 lung, 13.9 µM; in the assay with UACC-62 melanoma, 16.4 µM; in the assay with IGROV1 ovarian it was more than 50 µM. In addition, the TGI with MCF7 breast was more than 10.5 µM; with EKVX NSCLC, 14.8 µM; in the assay with SW-620 colon, more than 12.5 µM.
`O=C1OC(c2ccco2)=N/C1=C\c1ccc(Cl)c(Cl)c1`: the TGI in the assay with SK-MEL-2 melanoma, in the assay with OVCAR-5 ovarian, with HL-60(TB) leukemia, in the assay with NCI-H226 lung, in the assay on UACC-62 melanoma and with IGROV1 ovarian was more than 100 µM in each case. The TGI in the assay on MOLT-4 leukemia, in the assay with MCF7 breast, in the assay with EKVX NSCLC and with SW-620 colon was more than 100 µM in each case.
For `Cc1ccc(C)c(NC(=O)C(=O)C(c2cnc3ccc([N+](=O)[O-])cc3n2)[N+](=O)[O-])c1` (stereo not drawn), the TGI in the assay on SK-MEL-2 melanoma was more than 100 µM; in the assay with OVCAR-5 ovarian it was more than 100 µM; with HL-60(TB) leukemia, 45.2 µM; in the assay with NCI-H226 lung, more than 100 µM; in the assay with UACC-62 melanoma it was more than 100 µM; in the assay with IGROV1 ovarian, 83.8 µM. Besides, the TGI with MOLT-4 leukemia, in the assay with MCF7 breast, in the assay on EKVX NSCLC and with SW-620 colon was more than 100 µM in each case.
Regarding `CN(C)/[N+]([O-])=N/Oc1cc(Nc2cccc(C(=O)O)c2)c([N+](=O)[O-])cc1[N+](=O)[O-]`, the GI50 in the assay on SK-MEL-2 melanoma is 36 µM; in the assay on OVCAR-5 ovarian, more than 100 µM; in the assay with HL-60(TB) leukemia it was 52.2 µM; in the assay with NCI-H226 lung, more than 100 µM; in the assay with UACC-62 melanoma it was 50.1 µM; in the assay with IGROV1 ovarian, 41.1 µM. In addition, the GI50 in the assay on MOLT-4 leukemia was 61.4 µM; in the assay with MCF7 breast, 36.8 µM; in the assay with EKVX NSCLC, more than 100 µM; with SW-620 colon it was more than 100 µM. For the same compound, the TGI in the assay on SK-MEL-2 melanoma, with OVCAR-5 ovarian, in the assay on HL-60(TB) leukemia, with NCI-H226 lung, with UACC-62 melanoma and in the assay with IGROV1 ovarian was more than 100 µM each time. In addition, the TGI in the assay on MOLT-4 leukemia, with MCF7 breast, in the assay on EKVX NSCLC and in the assay with SW-620 colon was more than 100 µM in each case.
For `O=[N+]([O-])c1ccc(N2CCN(Cc3ccccc3)CC2)c2c1no[n+]2[O-]`, the GI50 in the assay with SK-MEL-2 melanoma was 2.22 µM; in the assay with OVCAR-5 ovarian it was 4.15 µM; with HL-60(TB) leukemia, 0.473 µM; in the assay on NCI-H226 lung it was 1.57 µM; in the assay with UACC-62 melanoma, 1.48 µM; in the assay with IGROV1 ovarian it was 0.951 µM. The GI50 with MOLT-4 leukemia was 0.194 µM; in the assay on MCF7 breast, 0.803 µM; with SW-620 colon, 1.2 µM. In addition, the TGI in the assay with SK-MEL-2 melanoma was determined as 4.76 µM; with OVCAR-5 ovarian, 8.77 µM; in the assay with HL-60(TB) leukemia it was 2.99 µM; with NCI-H226 lung, 3.46 µM; in the assay on UACC-62 melanoma, 3.4 µM; in the assay on IGROV1 ovarian, 2.66 µM. Besides, the TGI was found to be 2.39 µM with MOLT-4 leukemia, 2.44 µM in the assay with MCF7 breast and 3.05 µM with SW-620 colon.
Take `CC(C(=O)N1C(=O)N(C(=O)C(C)C(O)c2ccccc2)C(c2ccccc2)C1c1ccccc1)C(O)c1ccccc1` (stereo not drawn): the TGI in the assay on SK-MEL-2 melanoma is 50.2 µM; in the assay with HL-60(TB) leukemia, 6.79 µM; in the assay with NCI-H226 lung it was 34.3 µM; with UACC-62 melanoma it was 40.5 µM; in the assay on IGROV1 ovarian it was more than 100 µM; in the assay with MOLT-4 leukemia, 11.9 µM. Further, the TGI in the assay with MCF7 breast and with SW-620 colon was more than 100 µM in each case.
With `Cc1ccc(Nc2nc(NCCO)c3ccccc3n2)cc1C`, the GI50 was 11.3 µM with SK-MEL-2 melanoma; 4.29 µM with OVCAR-5 ovarian; 11 µM in the assay on HL-60(TB) leukemia; 10.8 µM in the assay on NCI-H226 lung; 12.1 µM in the assay with UACC-62 melanoma; 9.65 µM in the assay with IGROV1 ovarian. Also, the GI50 in the assay on MOLT-4 leukemia was 2.86 µM; in the assay on MCF7 breast, 1.66 µM; with SW-620 colon, 4.03 µM. For the same compound, the TGI with SK-MEL-2 melanoma was 24 µM; in the assay on OVCAR-5 ovarian it was 16.4 µM; with HL-60(TB) leukemia, 31 µM; in the assay on NCI-H226 lung it was 22.7 µM; in the assay on UACC-62 melanoma, 25.3 µM; with IGROV1 ovarian, 23.8 µM. For the same compound, the values for the TGI in the assay with MOLT-4 leukemia, in the assay with MCF7 breast and in the assay on SW-620 colon were 11 µM, 16.9 µM and 15.7 µM, respectively.
As to `Cn1c(C(N)=O)cc2c1-c1nc(Nc3ccccc3)ncc1CCC2`, the GI50 in the assay with SK-MEL-2 melanoma was 5.42 µM; in the assay on OVCAR-5 ovarian, 2.54 µM; in the assay on HL-60(TB) leukemia it was 6.77 µM; in the assay with NCI-H226 lung, 0.902 µM; in the assay on UACC-62 melanoma, 3.92 µM; in the assay with IGROV1 ovarian it was 3.87 µM. The GI50 in the assay with MOLT-4 leukemia is 4.21 µM; in the assay with MCF7 breast, 4.41 µM; in the assay on SW-620 colon it was 6.31 µM. Moreover, the TGI with SK-MEL-2 melanoma came out at 23.1 µM; with OVCAR-5 ovarian, 25.1 µM; in the assay with HL-60(TB) leukemia it was 49.7 µM; in the assay on NCI-H226 lung, 33.7 µM; in the assay with UACC-62 melanoma, 17.7 µM; in the assay on IGROV1 ovarian, 24.2 µM. The figures for the TGI in the assay on MOLT-4 leukemia, in the assay on MCF7 breast and in the assay with SW-620 colon were 50.4 µM, more than 100 µM and 97.7 µM, respectively.
Regarding `c1ccc(N=C2c3ccccc3CN2c2ccccc2)cc1`, the TGI in the assay with SK-MEL-2 melanoma, in the assay on HL-60(TB) leukemia, with NCI-H226 lung, in the assay on UACC-62 melanoma, with IGROV1 ovarian and in the assay with MOLT-4 leukemia was more than 100 µM in each case. In addition, the TGI in the assay on MCF7 breast, in the assay with EKVX NSCLC and in the assay with SW-620 colon was more than 100 µM in each case.
`CNc1ccccc1C(=O)N/N=C/C=C/c1ccccc1`: the GI50 in the assay on SK-MEL-2 melanoma is 0.733 µM; in the assay with OVCAR-5 ovarian, 6.64 µM; with HL-60(TB) leukemia it was 0.566 µM; in the assay on NCI-H226 lung it was 10 µM; in the assay with UACC-62 melanoma, 0.816 µM; with IGROV1 ovarian, 4.41 µM. Moreover, the GI50 with MOLT-4 leukemia is 1.86 µM; in the assay with MCF7 breast it was 0.49 µM; in the assay on SW-620 colon, 0.454 µM. For the same compound, the TGI in the assay with SK-MEL-2 melanoma is 78.2 µM; with OVCAR-5 ovarian, more than 76.5 µM; in the assay on HL-60(TB) leukemia, 18.5 µM; in the assay with NCI-H226 lung, more than 100 µM; with UACC-62 melanoma, 32.7 µM; with IGROV1 ovarian, more than 100 µM. The TGI in the assay with MOLT-4 leukemia, in the assay on MCF7 breast and with SW-620 colon was more than 100 µM in each case.
